In BindingDB's records for doi:10.1021/ja062999h (The Scripps Research Institute, 2006) one finds IC50 data, which are given here for 1 compound.

Usually IC50 stands for the midpoint of a concentration-inhibition curve. A high value points to lower potency.

What all share (details): pH 7.4; 22 °C
In experiment [1] the target is T1, Monoacylglycerol lipase ABHD6 (Mus musculus, UniProt Q8R2Y0).
T1 sequence (Q8R2Y0 whole entry): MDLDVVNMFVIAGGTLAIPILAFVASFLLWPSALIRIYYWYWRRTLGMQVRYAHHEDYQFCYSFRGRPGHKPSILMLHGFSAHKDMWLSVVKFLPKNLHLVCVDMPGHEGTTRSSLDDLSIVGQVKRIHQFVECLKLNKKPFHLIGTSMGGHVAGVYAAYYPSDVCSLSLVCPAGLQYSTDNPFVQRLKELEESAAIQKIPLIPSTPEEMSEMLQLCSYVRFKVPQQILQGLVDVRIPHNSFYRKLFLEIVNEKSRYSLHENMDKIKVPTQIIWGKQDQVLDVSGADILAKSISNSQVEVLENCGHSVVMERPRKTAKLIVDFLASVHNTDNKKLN
The experiment in a line: Serine Hydrolase Activity Assay. The source says:
(§1) Serine hydrolase targets were recombinantly expressed in COS-7 cells by transient transfection. IC50 values were obtained by competitive ABPP with FP-rhodamine.

Experiment [2] concerns the target T2, Monoglyceride lipase (Mus musculus, UniProt O35678).
T2 sequence (O35678 whole entry): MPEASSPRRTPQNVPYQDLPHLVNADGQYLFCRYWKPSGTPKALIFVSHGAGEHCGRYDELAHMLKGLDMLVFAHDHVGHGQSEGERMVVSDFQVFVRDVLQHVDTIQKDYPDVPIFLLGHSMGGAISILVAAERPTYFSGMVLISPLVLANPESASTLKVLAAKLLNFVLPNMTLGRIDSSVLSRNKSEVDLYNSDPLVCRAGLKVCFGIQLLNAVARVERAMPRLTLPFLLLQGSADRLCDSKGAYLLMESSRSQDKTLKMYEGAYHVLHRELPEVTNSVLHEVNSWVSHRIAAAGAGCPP
Put plainly: Serine Hydrolase Activity Assay.
From the text: as §1

Experiment [3] deals with T3, Neutral cholesterol ester hydrolase 1 (Mus musculus, UniProt Q8BLF1).
T3 sequence (Q8BLF1 whole entry): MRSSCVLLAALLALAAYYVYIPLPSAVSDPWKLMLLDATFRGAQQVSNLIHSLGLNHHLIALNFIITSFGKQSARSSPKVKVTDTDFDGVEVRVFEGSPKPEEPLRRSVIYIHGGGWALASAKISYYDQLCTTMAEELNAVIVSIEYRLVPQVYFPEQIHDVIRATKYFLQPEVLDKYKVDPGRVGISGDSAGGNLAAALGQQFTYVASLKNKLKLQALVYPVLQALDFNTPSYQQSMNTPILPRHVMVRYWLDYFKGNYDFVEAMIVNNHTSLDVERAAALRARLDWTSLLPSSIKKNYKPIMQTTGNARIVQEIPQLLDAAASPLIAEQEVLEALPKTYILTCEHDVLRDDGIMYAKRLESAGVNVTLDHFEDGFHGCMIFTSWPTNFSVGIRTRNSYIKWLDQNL
Put plainly: Serine Hydrolase Activity Assay.
From the text: as §1

The target in experiment [4] is T4, Fatty-acid amide hydrolase 1 (Mus musculus, UniProt O08914).
T4 sequence (O08914 whole entry): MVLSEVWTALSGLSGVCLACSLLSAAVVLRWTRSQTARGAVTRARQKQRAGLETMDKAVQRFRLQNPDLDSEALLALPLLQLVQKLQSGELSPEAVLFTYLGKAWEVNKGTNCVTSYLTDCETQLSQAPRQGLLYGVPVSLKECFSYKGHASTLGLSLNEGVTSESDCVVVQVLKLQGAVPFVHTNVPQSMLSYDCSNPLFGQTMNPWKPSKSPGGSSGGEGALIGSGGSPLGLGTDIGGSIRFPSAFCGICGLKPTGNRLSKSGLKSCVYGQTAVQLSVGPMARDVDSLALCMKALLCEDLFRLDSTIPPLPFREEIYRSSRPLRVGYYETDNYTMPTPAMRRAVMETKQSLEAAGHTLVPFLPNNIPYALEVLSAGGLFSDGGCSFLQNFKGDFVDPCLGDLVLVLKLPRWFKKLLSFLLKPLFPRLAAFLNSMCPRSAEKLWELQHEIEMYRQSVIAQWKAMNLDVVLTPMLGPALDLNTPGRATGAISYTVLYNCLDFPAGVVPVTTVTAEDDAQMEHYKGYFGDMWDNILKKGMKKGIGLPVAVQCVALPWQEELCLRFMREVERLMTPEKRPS
Put plainly: FAAH Competitive ABPP Using FP-Rhodamine. As for the experimental part: Mouse brain membrane proteomes were preincubated with varying concentrations of inhibitors for 10 min prior to the addition of a rhodamine-tagged fluorophosphonate (FP-rhodamine). Reactions were quenched after 10 min, subjected to SDS-PAGE, and visualized in-gel using a flatbed fluorescence scanner. Labeled proteins were quantified by measuring integrated band intensities. Dose response curves obtained from three trials at each inhibitor concentration were fit using Prism software (GraphPad) to

SMILES strings stand for the structures.

Turning to `CN(C)C(=O)n1nnnc1Cc1ccc(-c2ccccc2)cc1` [N,N-dimethyl-5-[(4-phenylphenyl)methyl]-1H-1,2,3,4-tetrazole-1-carboxamide], the IC50 in experiment [1] was 0.09 nM; in experiment [2], 5.3 nM; in experiment [3], 8.2 nM; in experiment [4], 13 nM.
